Literature values as cited in paper PMC9851200, “Multiparameter phenotypic screening for endogenous TFEB and TFE3 translocation identifies novel chemical series modulating lysosome function” (Autophagy, 2022).
Read-outs that look alike come from different tables or passages of the source.

Legend:
Design in all cases: method as in original PKIS2 published data
[1] = biological target: T1, kinases (KINOMEscan panel) (Homo sapiens, UniProt Q9C098); conditions: kinase DCLK3; Published KINOMEscan; ref original PKIS2 published data; cited from earlier work
T1 sequence (Q9C098 1-648): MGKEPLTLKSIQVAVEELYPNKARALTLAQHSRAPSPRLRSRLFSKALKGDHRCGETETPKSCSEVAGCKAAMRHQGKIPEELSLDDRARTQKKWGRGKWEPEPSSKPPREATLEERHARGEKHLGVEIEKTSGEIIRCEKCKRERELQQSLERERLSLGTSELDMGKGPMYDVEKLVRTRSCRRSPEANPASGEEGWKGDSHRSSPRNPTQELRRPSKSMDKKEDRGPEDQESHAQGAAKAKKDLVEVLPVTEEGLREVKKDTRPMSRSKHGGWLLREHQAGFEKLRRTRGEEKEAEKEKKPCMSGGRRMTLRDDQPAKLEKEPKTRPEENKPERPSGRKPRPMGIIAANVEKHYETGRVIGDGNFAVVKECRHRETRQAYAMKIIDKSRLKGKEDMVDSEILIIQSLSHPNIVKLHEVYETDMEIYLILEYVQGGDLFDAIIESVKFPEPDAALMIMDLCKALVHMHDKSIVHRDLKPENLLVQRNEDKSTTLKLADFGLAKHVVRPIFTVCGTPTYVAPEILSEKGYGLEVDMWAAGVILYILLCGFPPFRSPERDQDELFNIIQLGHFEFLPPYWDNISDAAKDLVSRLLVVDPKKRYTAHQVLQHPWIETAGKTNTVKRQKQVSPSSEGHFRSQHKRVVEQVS

[2] = biological target: kinases (KINOMEscan panel) (Homo sapiens, UniProt Q16584); conditions: kinase MAP3K11; Published KINOMEscan; ref original PKIS2 published data; cited from earlier work
Sequence of kinases (KINOMEscan panel) (Homo sapiens, UniProt Q16584) (Q16584 whole entry): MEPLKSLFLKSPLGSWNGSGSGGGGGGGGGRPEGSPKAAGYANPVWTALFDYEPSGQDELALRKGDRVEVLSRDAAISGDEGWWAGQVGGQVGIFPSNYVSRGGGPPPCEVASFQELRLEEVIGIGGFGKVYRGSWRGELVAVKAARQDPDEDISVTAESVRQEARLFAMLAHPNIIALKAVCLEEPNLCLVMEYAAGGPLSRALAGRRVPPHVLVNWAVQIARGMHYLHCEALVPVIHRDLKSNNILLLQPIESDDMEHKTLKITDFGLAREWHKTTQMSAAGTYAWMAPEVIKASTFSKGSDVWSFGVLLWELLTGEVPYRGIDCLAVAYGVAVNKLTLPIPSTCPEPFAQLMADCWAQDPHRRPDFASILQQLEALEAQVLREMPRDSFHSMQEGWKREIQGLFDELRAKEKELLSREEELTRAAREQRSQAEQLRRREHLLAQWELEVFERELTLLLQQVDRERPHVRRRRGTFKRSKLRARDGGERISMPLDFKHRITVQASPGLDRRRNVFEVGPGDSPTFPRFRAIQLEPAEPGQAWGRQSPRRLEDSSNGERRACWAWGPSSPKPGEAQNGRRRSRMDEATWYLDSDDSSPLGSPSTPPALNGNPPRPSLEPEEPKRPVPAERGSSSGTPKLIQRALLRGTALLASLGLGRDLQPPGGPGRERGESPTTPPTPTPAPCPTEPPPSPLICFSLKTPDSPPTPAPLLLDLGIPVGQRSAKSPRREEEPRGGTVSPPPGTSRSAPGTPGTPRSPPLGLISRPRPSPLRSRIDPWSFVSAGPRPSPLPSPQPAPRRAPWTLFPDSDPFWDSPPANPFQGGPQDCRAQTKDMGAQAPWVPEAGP

[3] = biological target: T2, kinases (KINOMEscan panel) (Homo sapiens, UniProt P54760); conditions: EPHB4; Published KINOMEscan; ref original PKIS2 published data; cited from earlier work
T2 sequence (P54760 16-987): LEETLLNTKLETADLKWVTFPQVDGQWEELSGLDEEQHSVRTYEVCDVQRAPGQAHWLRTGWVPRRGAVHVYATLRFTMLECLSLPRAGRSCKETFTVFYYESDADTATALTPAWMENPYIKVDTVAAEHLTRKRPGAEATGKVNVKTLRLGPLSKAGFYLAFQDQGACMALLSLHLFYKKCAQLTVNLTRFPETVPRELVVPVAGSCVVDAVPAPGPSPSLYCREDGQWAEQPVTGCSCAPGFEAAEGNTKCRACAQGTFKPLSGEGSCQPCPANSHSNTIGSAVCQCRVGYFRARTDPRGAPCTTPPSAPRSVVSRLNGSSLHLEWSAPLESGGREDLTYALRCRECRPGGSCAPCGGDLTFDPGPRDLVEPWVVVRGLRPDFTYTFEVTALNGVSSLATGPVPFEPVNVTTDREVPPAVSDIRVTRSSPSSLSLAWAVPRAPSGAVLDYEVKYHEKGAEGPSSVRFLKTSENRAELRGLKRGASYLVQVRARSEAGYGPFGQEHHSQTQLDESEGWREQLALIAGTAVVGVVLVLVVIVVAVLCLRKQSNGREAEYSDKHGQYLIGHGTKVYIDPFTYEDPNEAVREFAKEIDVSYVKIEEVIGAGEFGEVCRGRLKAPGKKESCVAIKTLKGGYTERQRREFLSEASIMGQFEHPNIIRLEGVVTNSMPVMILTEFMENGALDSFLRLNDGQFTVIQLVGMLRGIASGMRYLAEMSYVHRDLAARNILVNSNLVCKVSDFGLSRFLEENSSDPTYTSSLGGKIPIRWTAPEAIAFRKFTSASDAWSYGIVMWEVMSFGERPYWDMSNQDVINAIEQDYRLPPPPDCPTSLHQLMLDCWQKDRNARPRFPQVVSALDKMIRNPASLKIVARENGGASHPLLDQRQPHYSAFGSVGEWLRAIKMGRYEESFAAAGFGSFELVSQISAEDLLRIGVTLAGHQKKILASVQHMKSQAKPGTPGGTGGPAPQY

[4] = biological target: T3, kinases (KINOMEscan panel) (Homo sapiens, UniProt Q08881); conditions: kinase ITK; Published KINOMEscan; ref original PKIS2 published data; cited from earlier work
T3 sequence (Q08881 1-620): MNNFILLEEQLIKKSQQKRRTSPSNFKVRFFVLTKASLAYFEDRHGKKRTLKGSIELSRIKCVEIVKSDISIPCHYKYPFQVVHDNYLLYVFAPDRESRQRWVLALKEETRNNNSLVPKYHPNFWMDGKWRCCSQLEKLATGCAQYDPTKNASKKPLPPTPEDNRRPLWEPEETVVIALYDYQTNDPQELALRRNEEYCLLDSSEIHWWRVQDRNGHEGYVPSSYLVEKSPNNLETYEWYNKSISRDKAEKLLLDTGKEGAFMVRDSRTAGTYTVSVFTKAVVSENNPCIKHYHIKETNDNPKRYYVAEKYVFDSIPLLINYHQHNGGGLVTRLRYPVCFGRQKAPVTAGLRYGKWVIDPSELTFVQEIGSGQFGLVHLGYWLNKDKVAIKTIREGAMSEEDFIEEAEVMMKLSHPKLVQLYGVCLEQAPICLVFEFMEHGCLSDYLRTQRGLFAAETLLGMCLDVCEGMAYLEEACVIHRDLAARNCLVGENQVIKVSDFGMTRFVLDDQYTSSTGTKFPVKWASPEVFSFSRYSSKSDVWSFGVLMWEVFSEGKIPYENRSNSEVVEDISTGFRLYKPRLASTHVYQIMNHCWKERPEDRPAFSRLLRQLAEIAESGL

[5] = test system: kinases (KINOMEscan panel); conditions: Published KINOMEscan, ref original PKIS2 published data, cited from earlier work

For `Cc1cccc(-c2nc(Nc3ccncc3)c3ccccc3n2)n1` [NK215], the “KINOMEscan DCLK3” value [1] is listed as 21, the “KINOMEscan MAP3K11” value [2] is listed as 6 and the “KINOMEscan EPHB4” value [3] is listed as 26. The “KINOMEscan ITK” value [4] was 24, the “KINOMEscan PRKAA2” value [5] was 0 and the “KINOMEscan PRKAA2” value ([5]; kinase PRKAA2) was 12.
